Experimental data from patent US20150274719A1, “AMINO-SUBSTITUTED IMIDAZO[1,2-A]PYRIDINECARBOXAMIDES AND THEIR USE” (BAYER PHARMA AKTIENGESELLSCHAFT, priority 2012, published 2015).

Target: T1, recombinant guanylate cyclase reporter cell line (Rattus norvegicus, UniProt P19686+P20595)
T1 construct: expressed in transfected cells; host or cells: recombinant reporter cell line
T1 sequence (P19686 1-690): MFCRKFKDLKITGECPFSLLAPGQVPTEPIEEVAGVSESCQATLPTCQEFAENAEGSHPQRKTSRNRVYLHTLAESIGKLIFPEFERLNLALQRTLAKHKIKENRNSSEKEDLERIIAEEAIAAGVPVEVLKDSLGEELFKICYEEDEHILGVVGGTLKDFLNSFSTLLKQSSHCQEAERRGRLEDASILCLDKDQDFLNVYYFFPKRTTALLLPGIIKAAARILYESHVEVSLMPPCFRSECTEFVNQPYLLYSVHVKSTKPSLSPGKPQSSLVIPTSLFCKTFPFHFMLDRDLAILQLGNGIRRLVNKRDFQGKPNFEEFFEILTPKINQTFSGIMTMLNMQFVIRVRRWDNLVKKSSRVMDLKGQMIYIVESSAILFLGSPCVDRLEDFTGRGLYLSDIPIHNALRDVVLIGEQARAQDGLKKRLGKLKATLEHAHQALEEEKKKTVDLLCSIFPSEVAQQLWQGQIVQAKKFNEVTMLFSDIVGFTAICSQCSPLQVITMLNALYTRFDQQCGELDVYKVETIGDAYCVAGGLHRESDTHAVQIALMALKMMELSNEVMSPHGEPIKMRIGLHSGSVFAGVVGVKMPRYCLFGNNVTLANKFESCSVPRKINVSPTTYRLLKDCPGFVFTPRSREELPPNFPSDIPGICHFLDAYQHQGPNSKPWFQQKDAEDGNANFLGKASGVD
T1 sequence (P20595 1-619): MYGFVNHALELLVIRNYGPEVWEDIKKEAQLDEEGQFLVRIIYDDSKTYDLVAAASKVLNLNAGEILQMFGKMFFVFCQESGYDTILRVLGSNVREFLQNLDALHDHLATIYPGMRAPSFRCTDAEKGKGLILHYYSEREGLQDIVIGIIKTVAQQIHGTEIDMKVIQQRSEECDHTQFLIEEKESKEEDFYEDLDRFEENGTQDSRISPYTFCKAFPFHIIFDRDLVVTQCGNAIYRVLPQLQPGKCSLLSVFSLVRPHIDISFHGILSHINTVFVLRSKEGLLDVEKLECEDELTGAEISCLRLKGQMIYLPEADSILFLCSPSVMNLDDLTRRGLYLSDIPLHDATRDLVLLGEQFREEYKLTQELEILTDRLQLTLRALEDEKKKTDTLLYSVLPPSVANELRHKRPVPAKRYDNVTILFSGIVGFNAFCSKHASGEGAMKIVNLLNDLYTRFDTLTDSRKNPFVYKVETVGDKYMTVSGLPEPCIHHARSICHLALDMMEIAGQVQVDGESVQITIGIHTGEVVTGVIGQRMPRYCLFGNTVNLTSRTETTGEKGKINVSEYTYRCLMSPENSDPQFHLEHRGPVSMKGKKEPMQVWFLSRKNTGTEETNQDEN
Assay: Action on recombinant guanylate cyclase reporter cell line
Format: cell-based
Settings: in some cases mean values from individual determinations
In short: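 Whole-cell reporter assay with recombinant guanylate cyclase; endpoint = minimal effective concentration.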

SMILES | MEC (minimal effective concentration)
Cc1cc(OCc2c(F)cccc2F)c2nc(C)c(C(=O)NC3(C)CC3(C)N)n2c1 (racemic) [Example 320, rac-N-(2-amino-1,2-dimethylcyclopropyl)-8-[(2,6-difluorobenzyl)oxy]-2,6-dimethylimidazo[1,2-a]pyridine-3-carboxamide (racemate)] | 0.30 µM
Cc1nc2c(OCc3c(F)cccc3F)cccn2c1C(=O)NC(C)CN (single isomer, unassigned) [Example 19, ent-N-(1-Aminopropan-2-yl)-8-[(2,6-difluorobenzyl)oxy]-2-methylimidazo[1,2-a]pyridine-3-carboxamide] | 1.66 µM
Cc1nc2c(OCc3c(F)cccc3F)cc(Cl)cn2c1C(=O)NCCNC(C)C [Example 149, 6-chloro-8-[(2,6-difluorobenzyl)oxy]-N-[2-(isopropylamino)ethyl]-2-methylimidazo[1,2-a]-pyridine-3-carboxamide] | 1.00 µM
Cc1cc(OCc2c(F)cccc2F)c2nc(C)c(C(=O)NC(CN)c3cccc(OC(F)(F)F)c3)n2c1 (racemic) [Example 380, rac-N-{2-amino-1-[3-(trifluoromethoxy)phenyl]ethyl}-8-[(2,6-difluorobenzyl)oxy]-2,6-dimethylimidazo[1,2-a]pyridine-3-carboxamide] | 1.00 µM
COc1cccc(C(N)CNC(=O)c2c(C)nc3c(OCc4c(F)cccc4F)cc(C)cn23)c1 (racemic) [Example 378, rac-N-[2-amino-2-(3-methoxyphenyl)ethyl]-8-[(2,6-difluorobenzyl)oxy]-2,6-dimethylimidazo[1,2-a]pyridine-3-carboxamide] | 1.00 µM
COCC(CN)NC(=O)c1c(C)nc2c(OCc3c(F)cccc3F)cccn12 (single isomer, unassigned) [Example 123, ent-N-(1-Amino-3-methoxypropan-2-yl)-8-[(2,6-difluorobenzyl)oxy]-2-methylimidazo[1,2-a]-pyridine-3-carboxamide ditrifluoroacetate] | 3.00 µM
Cc1nc2c(OCc3c(F)cccc3F)cccn2c1C(=O)NC(CN)c1ccccc1 (single isomer, unassigned; enantiomer b) [Example 18, ent-N-(2-Amino-1-phenylethyl)-8-[(2,6-difluorobenzyl)oxy]-2-methylimidazo[1,2-a]pyridine-3-carboxamide (Enantiomer B)] | 0.55 µM
CCCC(C)(N)CNC(=O)c1c(C(F)(F)F)nc2c(OCc3c(F)cccc3F)cc(C)cn12 (stereo not drawn) [Example 305, ent-N-(2-amino-2-methylpentyl)-8-[(2,6-difluorobenzyl)oxy]-6-methyl-2-(trifluoromethyl)imidazo[1,2-a]pyridine-3-carboxamide] | 0.10 µM
Cc1cc(OCc2c(F)cccc2F)c2nc(C)c(C(=O)NCC(N)C#N)n2c1 (racemic) [Example 400, rac-N-(2-amino-2-cyanoethyl)-8-[(2,6-difluorobenzyl)oxy]-2,6-dimethylimidazo[1,2-a]pyridine-3-carboxamide] | 0.65 µM
Cc1cc(OCc2c(F)cccc2F)c2nc(C)c(C(=O)NCC(C)(N)Cc3ncn(-c4cc(C)on4)n3)n2c1 (racemic) [Example 321, rac-N-{2-amino-2-methyl-3-[1-(5-methyl-1,2-oxazol-3-yl)-1H-1,2,4-triazol-3-yl]propyl}-8-[(2,6-difluorobenzyl)oxy]-2,6-dimethylimidazo[1,2-a]pyridine-3-carboxamide] | 0.30 µM
COCC(C)(N)CNC(=O)c1c(C)nc2c(OCc3c(F)cccc3F)cc(Cl)cn12 (single isomer, unassigned) [Example 197, ent-N-(2-Amino-3-methoxy-2-methylpropyl)-6-chloro-8-[(2,6-difluorobenzyl)oxy]-2-methylimidazo[1,2-a]pyridine-3-carboxamide] | 1.00 µM
Cc1cc(OCc2c(F)cccc2F)c2nc(C)c(C(=O)NCC3CCc4ccccc4N3)n2c1 (racemic) [Example 235, rac-8-[(2,6-Difluorobenzyl)oxy]-2,6-dimethyl-N-(1,2,3,4-tetrahydroquinolin-2-ylmethyl)imidazo-[1,2-a]pyridine-3-carboxamide] | 0.30 µM
COCC(N)CNC(=O)c1c(C)nc2c(OCc3c(F)cccc3F)cc(C)cn12 (single isomer, unassigned) [Example 242, ent-N-(2-Amino-3-methoxypropyl)-8-[(2,6-difluorobenzyl)oxy]-2,6-dimethylimidazo[1,2-a]-pyridine-3-carboxamide] | 0.30 µM
Cc1cc(OCc2c(F)cccc2F)c2nc(C)c(C(=O)NC(CN)c3ccc4c(c3)OCO4)n2c1 (racemic) [Example 381, rac-N-[2-amino-1-(1,3-benzodioxol-5-yl)ethyl]-8-[(2,6-difluorobenzyl)oxy]-2,6-dimethylimidazo[1,2-a]pyridine-3-carboxamide] | 0.30 µM
Cc1cc(OCc2c(F)cccc2F)c2nc(C)c(C(=O)NC(C)C3CCN(C)CC3)n2c1 (racemic) [Example 77, rac-8-[(2,6-difluorobenzyl)oxy]-2,6-dimethyl-N-[1-(1-methylpiperidin-4-yl)ethyl]imidazo[1,2-a]-pyridine-3-carboxamide] | 1.00 µM
Cc1nc2c(OCc3c(F)cccc3F)cccn2c1C(=O)NC(CN)c1ccc(Cl)cc1 (single isomer, unassigned; enantiomer b) [Example 15, ent-N-[2-Amino-1-(4-chlorophenyl)ethyl]-8-[(2,6-difluorobenzyl)oxy]-2-methylimidazo[1,2-a]-pyridine-3-carboxamide (Enantiomer B)] | 0.53 µM
CCCC(C)(N)CNC(=O)c1c(C)nc2c(OCc3c(F)ccc(C4CC4)c3F)cc(C)cn12 (stereo not drawn) [Example 359, ent-N-(2-amino-2-methylpentyl)-8-[(3-cyclopropyl-2,6-difluorobenzyl)oxy]-2,6-dimethylimidazo[1,2-a]pyridine-3-carboxamide] | 3.00 µM
Cc1nc2c(OCc3c(F)cccc3F)cc(Cl)cn2c1C(=O)NCCN1CCN(C)CC1 [Example 154, 6-chloro-8-[(2,6-difluorobenzyl)oxy]-2-methyl-N-[2-(4-methylpiperazin-1-yl)ethyl]imidazo[1,2-a]pyridine-3-carboxamide] | 1.00 µM
Cc1nc2c(OCc3c(F)cccc3F)cccn2c1C(=O)NC1CC2CCC(C1)N2C (centres unmarked) [Example 91, 8-[(2,6-difluorobenzyl)oxy]-2-methyl-N-(8-methyl-8-azabicyclo[3.2.1]oct-3-yl)imidazo[1,2-a]pyridine-3-carboxamide] | 1.00 µM
Cc1cc(OCc2c(F)cccc2F)c2nc(C)c(C(=O)NCCN3CCC(F)(F)CC3)n2c1 [Example 163, 8-[(2,6-difluorobenzyl)oxy]-N-[2-(4,4-difluoro-piperidin-1-yl)ethyl]-2,6-dimethylimidazo[1,2-a]pyridine-3-carboxamide] | 0.30 µM
Cc1nc2c(OCc3c(F)cccc3F)cc(Cl)cn2c1C(=O)NCCCN [Example 37, N-(3-aminopropyl)-6-chloro-8-[(2,6-difluorobenzyl)oxy]-2-methylimidazo[1,2-a]pyridine-3-carboxamide] | 1.00 µM
CSCCC(N)CNC(=O)c1c(C)nc2c(OCc3c(F)cccc3F)cc(C)cn12 (racemic) [Example 412, rac-N-[2-amino-4-(methylsulfanyl)butyl]-8-[(2,6-difluorobenzyl)oxy]-2,6-dimethylimidazo[1,2-a]pyridine-3-carboxamide] | 0.10 µM
Cc1nc2c(OCc3c(F)cccc3F)cc(Cl)cn2c1C(=O)NCCN [Example 36, N-(2-aminoethyl)-6-chloro-8-[(2,6-difluorobenzyl)oxy]-2-methylimidazo[1,2-a]-pyridine-3-carboxamide] | 1.00 µM
